Data from patent publication US9211310B2, “Use of a Chinese medicine composition in preparing medicaments for treating secondary prevention of myocardial infarction” (TASLY PHARMACEUTICAL GROUP CO., LTD, priority 2010, dated 2015).

System: patients after acute myocardial infarction
Experiment: Life quality, Seattle Angina Questionnaire (SAQ), same clinical trial
Format: in vivo, human
Settings: FAS
Source text: 3508 patients who were in accordance with the diagnostic standards of AMI for 28 days to 2 years and differentiated as Qi deficiency and blood stagnation syndrome by TCM were studied. 0.5 g Chinese medicine composition prepared by the method of EXAMPLE 1 (Coded as QSYQ) was administrated half an hour after meal, 3 times per day.
There were 19 questions in the Seattle angina questionnaire (SAQ), including 5 parts: physical limitation (PL), anginal stability (AS), anginal frequency (AF), treatment satisfaction (TS) and disease perception (DP). After being given necessary explanation by doctors, the questions were answered independently by patients.
They included the overall survival time, angina pectoris score, TCM symptom score and life quality score, where angina pectoris score, TCM symptom score and life quality score were evaluated at randomization, in 1st, 3rd, 6th, 9th, 12th month after treatment and 18th month after follow-up.
All evaluation results of SAQ were described during the period of observation, and Wilcoxon rank sum test was used for inter-group comparison.
The evaluation results in the SAQ were depicted in different observations, and inter-group comparison was tested by Wilcoxon Rank-sum test.

CC(=O)Oc1ccccc1C(=O)O [Control group, aspirine]
SAQ Question 1-2 Moderately limited, number of patients (1 month after treatment): 14
SAQ Question 1-2 Moderately limited, percent of patients (1 month after treatment): (0.80%)
SAQ Question 1-2 Not limited, number of patients (1 month after treatment): 1575
SAQ Question 1-2 Not limited, percent of patients (1 month after treatment): (90.36%)
SAQ Question 1-2 Other reasons, number of patients (1 month after treatment): 6
SAQ Question 1-2 Other reasons, percent of patients (1 month after treatment): (0.34%)
SAQ Question 1-2 Severely limited, number of patients (1 month after treatment): 0
SAQ Question 1-2 Severely limited, percent of patients (1 month after treatment): (0.00%)
SAQ Question 1-2 Slightly limited, percent of patients (1 month after treatment): (6.66%)
SAQ Question 1-6: Mildly limited, patients (%) (1 month after treatment): (18.54%)
SAQ Question 1-6: Moderately limited, patients (%) (1 month after treatment): (14.85%)
SAQ Question 1-6: Not limited, patients (%) (1 month after treatment): (29.59%)
SAQ Question 1-6: Other reasons, patients (%) (1 month after treatment): (0.81%)
SAQ Question 1-6: Severely limited, patients (%) (1 month after treatment): (5.18%)
SAQ Question 1-6: Slightly limited, patients (%) (1 month after treatment): (31.03%)
SAQ Question 1-7: Mildly limited, patients (%) (1 month after treatment): (23.73%)
SAQ Question 1-7: Moderately limited, patients (%) (1 month after treatment): (17.45%)
SAQ Question 1-7: Not limited, patients (%) (1 month after treatment): (12.86%)
SAQ Question 1-7: Other reasons, patients (%) (1 month after treatment): (2.85%)
SAQ Question 1-7: Severely limited, patients (%) (1 month after treatment): (17.68%)
SAQ Question 1-7: Slightly limited, patients (%) (1 month after treatment): (25.42%)
SAQ Question 1-8: Mildly limited, patients (%) (1 month after treatment): (24.13%)
SAQ Question 1-8: Moderately limited, patients (%) (1 month after treatment): (20.52%)
SAQ Question 1-8: Not limited, patients (%) (1 month after treatment): (9.01%)
SAQ Question 1-8: Other reasons, patients (%) (1 month after treatment): (2.79%)
SAQ Question 1-8: Severely limited, patients (%) (1 month after treatment): (22.27%)
SAQ Question 1-8: Slightly limited, patients (%) (1 month after treatment): (21.28%)
8th question: Dissatisfied, patients (%) (3 months after treatment): (0.17%)
8th question: Highly satisfied, patients (%) (3 months after treatment): (19.09%)
8th question: Mostly dissatisfied, patients (%) (3 months after treatment): (3.10%)
8th question: Mostly satisfied, patients (%) (3 months after treatment): (52.81%)
8th question: Partly satisfied, patients (%) (3 months after treatment): (24.83%)
9th question: Few, patients (%) (3 months after treatment): (31.88%)
9th question: Mild, patients (%) (3 months after treatment): (33.54%)
9th question: Moderate, patients (%) (3 months after treatment): (15.60%)
9th question: Severe, patients (%) (3 months after treatment): (1.49%)
9th question: Uneffective, patients (%) (3 months after treatment): (17.49%)
10th question: Dissatisfied, patients (%) (3 months after treatment): (21.33%)
10th question: Highly satisfied, patients (%) (3 months after treatment): (4.70%)
10th question: Mostly dissatisfied, patients (%) (3 months after treatment): (22.19%)
10th question: Mostly satisfied, patients (%) (3 months after treatment): (24.20%)
10th question: Partly satisfied, patients (%) (3 months after treatment): (27.58%)
11th question: Continuously worried, patients (%) (3 months after treatment): (5.39%)
11th question: No worried, patients (%) (3 months after treatment): (4.87%)
11th question: Occasionally worried, patients (%) (3 months after treatment): (40.94%)
11th question: Often worried, patients (%) (3 months after treatment): (18.29%)
11th question: Seldom worried, patients (%) (3 months after treatment): (30.50%)
SAQ 4th question, 1-2 times per week: % of patients (3 months after treatment): (16.69%)
SAQ 4th question, 1-2 times per week: number of patients (3 months after treatment): 291
SAQ 4th question, 1-3 times per day: % of patients (3 months after treatment): (5.56%)
SAQ 4th question, 1-3 times per day: number of patients (3 months after treatment): 97
SAQ 4th question, <1 time per week: % of patients (3 months after treatment): (11.47%)
SAQ 4th question, <1 time per week: number of patients (3 months after treatment): 200
SAQ 4th question, Not used: % of patients (3 months after treatment): (55.50%)
SAQ 4th question, Not used: number of patients (3 months after treatment): 968
SAQ 4th question, ≧3 times per week: % of patients (3 months after treatment): (10.72%)
SAQ 4th question, ≧3 times per week: number of patients (3 months after treatment): 187
SAQ 4th question, ≧4 times per day: % of patients (3 months after treatment): (0.06%)
SAQ 4th question, ≧4 times per day: number of patients (3 months after treatment): 1
SAQ 5th question, Few: % of patients (3 months after treatment): (24.60%)
SAQ 5th question, Few: number of patients (3 months after treatment): 429
SAQ 5th question, Mild: % of patients (3 months after treatment): (26.26%)
SAQ 5th question, Mild: number of patients (3 months after treatment): 458
SAQ 5th question, Moderate: % of patients (3 months after treatment): (15.65%)
SAQ 5th question, Moderate: number of patients (3 months after treatment): 273
SAQ 5th question, None: % of patients (3 months after treatment): (27.41%)
SAQ 5th question, None: number of patients (3 months after treatment): 478
SAQ 5th question, Not medicated by doctors: % of patients (3 months after treatment): (4.36%)
SAQ 5th question, Not medicated by doctors: number of patients (3 months after treatment): 76
SAQ 5th question, Severe: % of patients (3 months after treatment): (1.72%)
SAQ 5th question, Severe: number of patients (3 months after treatment): 30
SAQ 6th question, Dissatisfied: % of patients (3 months after treatment): (0.23%)
SAQ 6th question, Dissatisfied: number of patients (3 months after treatment): 4
SAQ 6th question, Highly satisfied: % of patients (3 months after treatment): (19.61%)
SAQ 6th question, Highly satisfied: number of patients (3 months after treatment): 342
SAQ 6th question, Mostly dissatisfied: % of patients (3 months after treatment): (2.64%)
SAQ 6th question, Mostly dissatisfied: number of patients (3 months after treatment): 46
